Like-named read-outs stand apart in the source and are kept apart here.
How the values were obtained:
[1] = test system: HBV DNA in the supernatant of HepG2.2.15; assay: Determination of anti-HBV activity in HepG2.2.15 cell (HBV DNA in supernatant by qPCR); type: cell-based, Hepatitis B virus
[2] = Determination of cytotoxicity (HepG2 cells, resazurin assay, 4 days); type: cell-based; conditions: human, read-out: Experiment 3 Cytotoxicity CC50
Procedure: Experiment 3: Determination of Cytotoxicity
The cytotoxicity of the test compound was tested using HepG2 cells. The cells were incubated for 4 days in the presence of the test compound. Cell activity was assessed using the resazurin assay.

[3] = HepG2.2.15 cells, HBV DNA, read-out: Experiment 2 Cell experiment EC50
[4] = Hepatitis B virus, HepG2.2.15, HepG2.2.15 cells, HBV DNA, read-out: Experiment 2 Cell experiment EC50

| SMILES | EC50 [1, 3] | CC50 at 4 days [2] | EC50 ([1]; Hepatitis B virus, HepG2.2.15, read-out: Experiment 2 Cell experiment EC50) | EC50 [1, 4] |
| --- | --- | --- | --- | --- |
| CC(C)[C@H]1C=Cc2c(cn(C)c2C(=O)Nc2ccc(F)c(F)c2)S(=N)(=O)N1 (single isomer, unassigned) [Compound 10a1] | 100 to 1000 nM | > 30000 nM | – | – |
| CC(C)[C@H]1C=Cc2c(cn(C)c2C(=O)Nc2ccc(F)c(C#N)c2)S(=N)(=O)N1 (single isomer, unassigned) [Compound 10b1] | – | > 30000 nM | 100 to 1000 nM | – |
| Cn1cc2c(c1C(=O)Nc1ccc(F)c(F)c1)C=C[C@H](C1CCCCC1)NS2(=N)=O (single isomer, unassigned) [Compound 10bb1] | 100 to 1000 nM | > 30000 nM | – | – |
| CC(C)[C@H]1C=Cc2c(cn(C)c2C(=O)Nc2cc(F)c(F)c(F)c2)S(=N)(=O)N1 (single isomer, unassigned) [Compound 10c1] | 100 to 1000 nM | > 30000 nM | – | – |
| Cn1cc2c(c1C(=O)Nc1ccc(F)c(C#N)c1)C=C[C@H](C1CCCCC1)NS2(=N)=O (single isomer, unassigned) [Compound 10cc1] | 100 to 1000 nM | > 30000 nM | – | – |
| C[C@@H](OCc1ccccc1)[C@H]1C=Cc2c(cn(C)c2C(=O)Nc2ccc(F)c(C#N)c2)S(=N)(=O)N1 (single isomer, unassigned) [Compound 10ccc1] | 100 to 1000 nM | > 30000 nM | – | – |
| C[C@@H](OCc1ccccc1)[C@H]1C=Cc2c(cn(C)c2C(=O)Nc2cc(F)c(F)c(F)c2)S(=N)(=O)N1 (single isomer, unassigned) [Compound 10ddd1] | 100 to 1000 nM | > 30000 nM | – | – |
| CC(C)[C@H]1C=Cc2c(cn(C)c2C(=O)Nc2cc(F)nc(C#N)c2)S(=N)(=O)N1 (single isomer, unassigned) [Compound 10e1] | 100 to 1000 nM | > 30000 nM | – | – |
| CC(C)[C@H]1C=Cc2c(cn(C)c2C(=O)Nc2ccnc(C(F)F)c2)S(=N)(=O)N1 (single isomer, unassigned) [Compound 10f1] | 100 to 1000 nM | > 30000 nM | – | – |
| CC(C)[C@@H]1C=Cc2c(cn(C)c2C(=O)Nc2ccc(F)c(F)c2)S(=N)(=O)N1 (single isomer, unassigned) [Compound 10g1] | 100 to 1000 nM | > 30000 nM | – | – |
| CC(C)[C@@H]1C=Cc2c(cn(C)c2C(=O)Nc2ccc(F)c(C#N)c2)S(=N)(=O)N1 (single isomer, unassigned) [Compound 10h1] | – | > 30000 nM | – | > 1000 nM |
| CC[C@H](C)[C@H]1C=Cc2c(cn(C)c2C(=O)Nc2ccc(F)c(F)c2)S(=N)(=O)N1 (single isomer, unassigned) [Compound 10n1] | 100 to 1000 nM | > 30000 nM | – | – |
| CC[C@H](C)[C@H]1C=Cc2c(cn(C)c2C(=O)Nc2ccc(F)c(C#N)c2)S(=N)(=O)N1 (single isomer, unassigned) [Compound 10o1] | 100 to 1000 nM | > 30000 nM | – | – |
| COc1ccc(CC[C@H](C)[C@H]2C=Cc3c(cn(C)c3C(=O)Nc3cc(F)nc(C#N)c3)S(=N)(=O)N2)cc1 (single isomer, unassigned) [Compound 10vvv1] | 100 to 1000 nM | > 30000 nM | – | – |
| CC(C)C[C@H]1C=Cc2c(cn(C)c2C(=O)Nc2cc(F)nc(C#N)c2)S(=N)(=O)N1 (single isomer, unassigned) [Compound 10w1] | 100 to 1000 nM | > 30000 nM | – | – |
| CC(C)[C@H]1CCc2c(cn(C)c2C(=O)Nc2ccc(F)c(F)c2)S(=N)(=O)N1 (single isomer, unassigned) [Compound 20a1] | 100 to 1000 nM | > 30000 nM | – | – |
| CC(C)[C@H]1CCc2c(cn(C)c2C(=O)Nc2ccc(F)c(C#N)c2)S(=N)(=O)N1 (single isomer, unassigned) [Compound 20b1] | 100 to 1000 nM | > 30000 nM | – | – |
| CC(C)[C@H]1CCc2c(cn(C)c2C(=O)Nc2cc(F)c(F)c(F)c2)S(=N)(=O)N1 (single isomer, unassigned) [Compound 20c1] | 100 to 1000 nM | > 30000 nM | – | – |
| C[C@@H](OCc1ccccc1)[C@H]1CCc2c(cn(C)c2C(=O)Nc2ccc(F)c(C#N)c2)S(=N)(=O)N1 (single isomer, unassigned) [Compound 20ccc1] | – | > 30000 nM | – | 0.1 to 100 nM |
| Cn1cc2c(c1C(=O)Nc1cc(F)nc(C#N)c1)CC[C@H](C1CCCCC1)NS2(=N)=O (single isomer, unassigned) [Compound 20dd1] | 100 to 1000 nM | > 30000 nM | – | – |
| Cn1cc2c(c1C(=O)Nc1ccnc(C(F)F)c1)CC[C@H](C1CCCCC1)NS2(=N)=O (single isomer, unassigned) [Compound 20ee1] | 100 to 1000 nM | > 30000 nM | – | – |
| COc1ccc(CC[C@H](C)[C@H]2CCc3c(cn(C)c3C(=O)Nc3cc(F)c(F)c(F)c3)S(=N)(=O)N2)cc1 (single isomer, unassigned) [Compound 20ttt1] | 100 to 1000 nM | > 30000 nM | – | – |
| CC(O)[C@H]1C=Cc2c(cn(C)c2C(=O)Nc2ccc(F)c(F)c2)S(=N)(=O)N1 (single isomer, unassigned) [Compound 30a1] | – | > 30000 nM | – | 100 to 1000 nM |

| SMILES | EC50 [1, 3] | CC50 at 4 days [2] | EC50 ([1]; Hepatitis B virus, HepG2.2.15, read-out: Experiment 2 Cell experiment EC50) | EC50 [1, 4] |
| --- | --- | --- | --- | --- |
| CC(O)[C@H]1C=Cc2c(cn(C)c2C(=O)Nc2ccc(F)c(C#N)c2)S(=N)(=O)N1 (single isomer, unassigned) [Compound 30b1] | – | > 30000 nM | – | 100 to 1000 nM |
| CC(O)[C@H]1C=Cc2c(cn(C)c2C(=O)Nc2cc(F)c(F)c(F)c2)S(=N)(=O)N1 (single isomer, unassigned) [Compound 30c1] | – | > 30000 nM | – | 100 to 1000 nM |
| Cn1cc2c(c1C(=O)Nc1ccc(F)c(F)c1)C=C[C@H](CO)NS2(=N)=O (single isomer, unassigned) [Compound 30g1] | – | > 30000 nM | – | 100 to 1000 nM |
| CC(O)[C@H]1CCc2c(cn(C)c2C(=O)Nc2ccc(F)c(F)c2)S(=N)(=O)N1 (single isomer, unassigned) [Compound 40a1] | – | > 30000 nM | – | 100 to 1000 nM |
| CC(O)[C@H]1CCc2c(cn(C)c2C(=O)Nc2ccc(F)c(C#N)c2)S(=N)(=O)N1 (single isomer, unassigned) [Compound 40b1] | – | > 30000 nM | – | 100 to 1000 nM |
| Cn1cc2c(c1C(=O)Nc1ccc(F)c(F)c1)CC[C@H](CO)NS2(=N)=O (single isomer, unassigned) [Compound 40g1] | – | > 30000 nM | – | 100 to 1000 nM |
| CN=S1(=O)N[C@@H](C(C)C)C=Cc2c1cn(C)c2C(=O)Nc1ccc(F)c(F)c1 (single isomer, unassigned) [Compound 50a1] | 100 to 1000 nM | > 30000 nM | – | – |
| CN=S1(=O)N[C@@H](CC(C)C)C=Cc2c1cn(C)c2C(=O)Nc1ccc(F)c(C#N)c1 (single isomer, unassigned) [Compound 50s1] | 100 to 1000 nM | > 30000 nM | – | – |
| CCN=S1(=O)N[C@@H](CC(C)C)C=Cc2c1cn(C)c2C(=O)Nc1ccc(F)c(C#N)c1 (single isomer, unassigned) [Compound 50t1] | 100 to 1000 nM | > 30000 nM | – | – |
| CC(C)C[C@H]1C=Cc2c(cn(C)c2C(=O)Nc2ccc(F)c(C#N)c2)S(=O)(=NC(C)C)N1 (single isomer, unassigned) [Compound 50u1] | 100 to 1000 nM | > 30000 nM | – | – |
| CC(C)C[C@H]1C=Cc2c(cn(C)c2C(=O)Nc2ccc(F)c(C#N)c2)S(=O)(=NC2CC2)N1 (single isomer, unassigned) [Compound 50v1] | 100 to 1000 nM | > 30000 nM | – | – |
| CN=S1(=O)N[C@@H](C(C)C)CCc2c1cn(C)c2C(=O)Nc1ccc(F)c(F)c1 (single isomer, unassigned) [Compound 60a1] | 100 to 1000 nM | > 30000 nM | – | – |
| CCN=S1(=O)N[C@@H](C(C)C)CCc2c1cn(C)c2C(=O)Nc1ccc(F)c(C#N)c1 (single isomer, unassigned) [Compound 60g1] | 100 to 1000 nM | > 30000 nM | – | – |
| CN=S1(=O)N[C@@H](CC(C)C)CCc2c1cn(C)c2C(=O)Nc1ccc(F)c(C#N)c1 (single isomer, unassigned) [Compound 60v1] | 100 to 1000 nM | > 30000 nM | – | – |
| CCN=S1(=O)N[C@@H](CC(C)C)CCc2c1cn(C)c2C(=O)Nc1ccc(F)c(C#N)c1 (single isomer, unassigned) [Compound 60w1] | 100 to 1000 nM | > 30000 nM | – | – |
| CC(C)C[C@H]1CCc2c(cn(C)c2C(=O)Nc2ccc(F)c(C#N)c2)S(=O)(=NC(C)C)N1 (single isomer, unassigned) [Compound 60x1] | 100 to 1000 nM | > 30000 nM | – | – |
| CC(C)C[C@H]1CCc2c(cn(C)c2C(=O)Nc2ccc(F)c(C#N)c2)S(=O)(=NC2CC2)N1 (single isomer, unassigned) [Compound 60y1] | 100 to 1000 nM | > 30000 nM | – | – |
| CC(C)[C@H]1C=Cc2c(nn(C)c2C(=O)Nc2ccc(F)c(C#N)c2)S(=N)(=O)N1 (single isomer, unassigned) [Compound 70a1] | 100 to 1000 nM | > 30000 nM | – | – |
| CC(C)C[C@H]1C=Cc2c(nn(C)c2C(=O)Nc2ccc(F)c(C#N)c2)S(=N)(=O)N1 (single isomer, unassigned) [Compound 70b1] | 100 to 1000 nM | > 30000 nM | – | – |
| CC(C)[C@H]1CCc2c(nn(C)c2C(=O)Nc2ccc(F)c(C#N)c2)S(=N)(=O)N1 (single isomer, unassigned) [Compound 80a1] | 100 to 1000 nM | > 30000 nM | – | – |
| CC(C)C[C@H]1CCc2c(nn(C)c2C(=O)Nc2ccc(F)c(C#N)c2)S(=N)(=O)N1 (single isomer, unassigned) [Compound 80b1] | 100 to 1000 nM | > 30000 nM | – | – |
| CN=S1(=O)N[C@@H](C(C)C)CCc2c1nn(C)c2C(=O)Nc1ccc(F)c(C#N)c1 (single isomer, unassigned) [Compound 90a1] | 100 to 1000 nM | > 30000 nM | – | – |
| CN=S1(=O)N[C@@H](CC(C)C)CCc2c1nn(C)c2C(=O)Nc1ccc(F)c(C#N)c1 (single isomer, unassigned) [Compound 90b1] | 100 to 1000 nM | > 30000 nM | – | – |
